According to article PMC9695823, “Regioselective Synthesis of 6-O-Acetyl Dieckol and Its Selective Cytotoxicity against Non-Small-Cell Lung Cancer Cells” (Marine Drugs, 2022):

Legend:
[1] = test system: A549 cells; assay: MTT cytotoxicity assay against A549 non-small-cell lung cancer cells; type: cell-based; conditions: for IC50: Homo sapiens, A549
Procedure: (§1) The cytotoxicity of DK and its various acyl and alkyl derivatives was assessed using the MTT assay against a non-small-lung cancer cell line (A549) and a normal cell line (NIH/3T3) at […] different concentrations (0, 0.005, 0.05, 0.5, 5, 50 and 500 μM). Among the newly synthesized acyl derivatives, the 6-O-acetyl (2) and 6-O-benzoyl (3) derivatives were included in this study, while the 6-O-propionyl (4) and 6-O-toluoyl (5) derivatives, which had been considered to be very similar to 6-O-acetyl (2) and 6-O-benzoyl (3) derivatives, respectively, were excluded from this study. […] The methyl and benzyl derivatives (6 and 7) were selected in parallel with acetyl and benzoyl (2 and 3) derivatives, respectively, to identify any impact of substitution chemistry (via sp^2 vs. sp^3 carbon in acylations and alkylations, respectively) and steric effect in cytotoxicity. Methoxymethyl (8), 3-(ethoxycarbonyl)propyl (9) and hydroxypropyl (10) derivatives were selected to determine the size effect of moderately polar substituents with a common heteroatom such as oxygen.
(§2) The non-small-cell lung cancer cell line A549 and the normal cell line NIH/3T3 were purchased from Korea Cell Line Research Foundation (Seoul, Korea). The cell lines were cultured in Dulbecco’s modified Eagle’s medium (DMEM) supplemented with 10% FBS and 1% penicillin–streptomycin at 37 °C with 5% CO2.
The cytotoxicity of DK and its derivatives was assessed by MTT assay, based on the reduction of MTT into insoluble formazan crystals by metabolically active cells. Briefly, the cells ([…]) were seeded in each well containing culture medium in a 96-well plate. After the incubation for 24 h at 37 °C, various concentrations of DK and its derivatives were added. After 24 h, 10 μL of the MTT reagent ([…]) was added, and the plates were incubated for an additional 2 h. The medium was discarded, and the formazan blue, which was formed in the cells, was dissolved in […] of dimethyl sulfoxide (DMSO). The optical density was measured at 540 nm using a microplate spectrophotometer (Epoch; Agilent Technologies, Inc. Santa Clara, CA, USA). The IC50 corresponded to a 50% decrease in the number of cells compared to the untreated control. The results are represented as the mean of three independent experiments. The IC50 values of DK and its derivatives were determined for the different cell lines by nonlinear regression using GraphPad Prism v6.0 software (La Jolla, CA, USA).

[2] = test system: NSCLC (A549) cells vs. normal (NIH/3T3) cells; assay: Selectivity index, cytotoxicity A549 vs. NIH/3T3; type: cell-based; conditions: SI = IC50 (NIH/3T3 cells)/IC50 (A549 cells)
Excerpt: The ideal anticancer drug should have a relatively high toxic concentration on normal cells with a very low active concentration on cancer cells. In this study, the cancer-selective cytotoxicity of DK derivatives has been studied for the first time. To address this selectivity issue, the selectivity index (SI), which is defined as the ratio of the toxic concentration of a sample against its effective bioactive concentration according to Equation (1) (see Section 4.7), was used. […] An SI value ≥ 10 was assumed to belong to a selected potential sample that can be further investigated. Therefore, the acetyl and hydroxypropyl DKs would be highly considered for further investigations as potential anti-NSCLC chemotherapeutic agents.
The selectivity index (SI) was determined to assess the selective cytotoxicity of the DK derivatives against NSCLC (A549) cells vs. normal (NIH/3T3) cells based on Equation (1):SI = IC50 (NIH/3T3 cells)/IC50 (A549 cells)(1)

[3] = MTT cytotoxicity assay against normal cell line NIH/3T3; type: cell-based; conditions: mouse, NIH/3T3 normal cells, 24 h treatment, 0-500 μM, mean ± SD
Procedure: as §1, §2
(§3) The cytotoxicity of DK and its derivatives was assessed by MTT assay, based on the reduction of MTT into insoluble formazan crystals by metabolically active cells. Briefly, the cells ([…]) were seeded in each well containing culture medium in a 96-well plate. After the incubation for 24 h at 37 °C, various concentrations of DK and its derivatives were added. […] The optical density was measured at 540 nm using a microplate spectrophotometer (Epoch; Agilent Technologies, Inc. Santa Clara, CA, USA). […] The IC50 values of DK and its derivatives were determined for the different cell lines by nonlinear regression using GraphPad Prism v6.0 software (La Jolla, CA, USA).

[4] = parameters: method as in PMID 35542614; conditions: estimated; cited from earlier work
[5] = test system: NIH/3T3 cells; assay: MTT cytotoxicity assay against normal cell line NIH/3T3; type: cell-based; conditions: 24 h treatment, 0-500 μM, mean ± SD, listed as DK
Procedure: as §1, §2, §3

[6] = MTT, 24 h treatment, 0-500 μM, mean ± SD

SMILES | fold increase in IC50 compared with acetyl DK ([1]; A549 cells) | IC50 [1, 6] | SI Value (selectivity index) [2] | IC50 at 24 h [3] | times higher activity than 6-O-benzyl DK ([1]; A549 cells) | lowest pKa [4] | Cytotoxicity (IC50) NIH/3T3 [5] | Cytotoxicity (IC50) A549 ([1]; MTT, 24 h treatment, 0-500 μM, mean ± SD, listed as DK)
O=C(Oc1cc(O)cc2c1Oc1c(Oc3cc(O)c(Oc4cc(O)c5c(c4)Oc4c(O)cc(O)c(Oc6cc(O)cc(O)c6)c4O5)c(O)c3)c(O)cc(O)c1O2)c1ccccc1 [compound 3, 6-O-benzoyl dieckol] | 91 fold | 641 ± 17.9 µM | – | – | – | – | – | –
CC(=O)Oc1cc(O)cc2c1Oc1c(Oc3cc(O)c(Oc4cc(O)c5c(c4)Oc4c(O)cc(O)c(Oc6cc(O)cc(O)c6)c4O5)c(O)c3)c(O)cc(O)c1O2 [compound 2, 6-O-acetyl dieckol] | – | 7.02 ± 1.53 µM | 68.58 | 481 µM | 120 times | – | – | –
OCCCOc1cc(O)cc2c1Oc1c(Oc3cc(O)c(Oc4cc(O)c5c(c4)Oc4c(O)cc(O)c(Oc6cc(O)cc(O)c6)c4O5)c(O)c3)c(O)cc(O)c1O2 [compound 10] | – | 13.1 ± 5.06 µM | 43.07 | 563 ± 51.8 µM | – | – | – | –
Oc1cc(O)cc(Oc2c(O)cc(O)c3c2Oc2c(O)cc(Oc4c(O)cc(Oc5c(O)cc(O)c6c5Oc5c(O)cc(O)cc5O6)cc4O)cc2O3)c1 [compound 1, Dieckol] | – | – | – | – | – | 5.0 | did not show detectable cytotoxicity | did not show detectable cytotoxicity
